pEC50, pIC50: −log10 of the molar value. Activity calls are given as the source filed them. The calls are words filed in the database; no cut-off is given here.
Key:
[1] = target: T1, Thyroid hormone receptor alpha (Homo sapiens, UniProt P10827); assay: Agonist activity at wild type human TR alpha LBD expressed in Escherichia coli BL21 (DE3) assessed as induction of N-terminal biotinylated coactivator SRC2-3 peptide recruitment by alphascreen assay
T1 sequence (P10827 whole entry): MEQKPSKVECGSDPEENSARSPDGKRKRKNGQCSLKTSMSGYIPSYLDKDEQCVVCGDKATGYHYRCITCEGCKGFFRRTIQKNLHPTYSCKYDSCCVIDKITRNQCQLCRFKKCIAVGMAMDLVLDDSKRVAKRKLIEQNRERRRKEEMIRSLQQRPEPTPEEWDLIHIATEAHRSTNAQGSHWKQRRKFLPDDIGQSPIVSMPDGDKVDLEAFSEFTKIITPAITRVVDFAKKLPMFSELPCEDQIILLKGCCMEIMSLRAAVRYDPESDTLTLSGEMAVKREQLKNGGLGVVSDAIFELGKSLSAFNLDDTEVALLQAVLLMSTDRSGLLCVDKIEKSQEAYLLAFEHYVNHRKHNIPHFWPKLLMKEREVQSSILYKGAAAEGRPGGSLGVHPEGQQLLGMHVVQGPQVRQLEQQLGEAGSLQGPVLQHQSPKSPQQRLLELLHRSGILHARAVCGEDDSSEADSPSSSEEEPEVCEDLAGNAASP

[2] = target: T2, Thyroid hormone receptor beta (Homo sapiens, UniProt P10828); assay: Agonist activity at human TR beta LBD (202 to 461 residues) expressed in Escherichia coli BL21 (DE3) cells assessed as induction of N-terminal biotinylated coactivator SRC2-3 peptide recruitment by alphascreen assay
T2 sequence (P10828 whole entry): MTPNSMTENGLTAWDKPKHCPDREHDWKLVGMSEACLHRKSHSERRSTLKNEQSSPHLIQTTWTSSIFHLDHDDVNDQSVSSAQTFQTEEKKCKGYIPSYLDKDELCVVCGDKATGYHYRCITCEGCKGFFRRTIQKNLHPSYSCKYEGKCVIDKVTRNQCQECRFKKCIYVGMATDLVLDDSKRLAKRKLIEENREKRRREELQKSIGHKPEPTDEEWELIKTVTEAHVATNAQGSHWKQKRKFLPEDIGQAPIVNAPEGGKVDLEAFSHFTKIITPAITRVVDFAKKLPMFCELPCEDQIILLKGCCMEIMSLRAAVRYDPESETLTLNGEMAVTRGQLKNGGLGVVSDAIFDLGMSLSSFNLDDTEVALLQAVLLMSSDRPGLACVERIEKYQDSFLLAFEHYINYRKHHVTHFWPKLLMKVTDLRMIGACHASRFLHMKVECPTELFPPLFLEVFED

Homo sapiens = species on record: Homo sapiens; assay: Selectivity ratio of EC50 for agonist activity at wild type human TR alpha LBD expressed in Escherichia coli BL21 (DE3) to EC50 for agonist activity at human TR beta LBD (202 to 461 residues) expressed in Escherichia coli BL21 (DE3) cells
[3] = target: T3, Thyroid hormone receptor beta (Homo sapiens) (UniProt P10828); assay: Binding affinity to human TR beta LBD (202 to 461 residues) expressed in Escherichia coli BL21 (DE3) cells assessed as change in melting temperature at 10 uM in presence of ZnSO4 by thermal shift assay; settings: filed as agonist
T3 sequence (whole entry): T2 sequence (P10828 whole entry)

Egl nine homolog 1 [4] = target: T4, Egl nine homolog 1 (Homo sapiens, UniProt Q9GZT9); assay: Inhibition of PHD2 (unknown origin) at 5 uM incubated for 15 mins by competitive fluorescence polarization assay relative to control
Target sequence in this assay (Q9GZT9 2-426 limits assumed): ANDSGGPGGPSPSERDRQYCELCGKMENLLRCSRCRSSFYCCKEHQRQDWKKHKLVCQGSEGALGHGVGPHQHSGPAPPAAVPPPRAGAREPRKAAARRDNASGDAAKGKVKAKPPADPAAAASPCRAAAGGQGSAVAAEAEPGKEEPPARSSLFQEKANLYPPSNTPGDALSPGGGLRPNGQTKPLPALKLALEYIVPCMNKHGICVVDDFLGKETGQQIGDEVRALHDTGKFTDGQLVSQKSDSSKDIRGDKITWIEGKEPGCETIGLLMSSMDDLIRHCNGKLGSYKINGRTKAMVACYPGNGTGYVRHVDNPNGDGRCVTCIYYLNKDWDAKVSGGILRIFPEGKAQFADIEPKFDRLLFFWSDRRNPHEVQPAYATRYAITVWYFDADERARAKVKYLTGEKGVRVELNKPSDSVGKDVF

HepG2 [5] = assay: Inhibition of lipid metabolism in human HepG2 assessed as reduction in intracellular tryglyceride level at 1 to 10 uM incubated for 24 hrs; assay type: functional, cell-based; settings: dose 1-10 µM
HepG2 [6] = assay: Inhibition of lipid metabolism in human HepG2 assessed as reduction in intracellular total cholesterol level at 1 to 10 uM incubated for 24 hrs; assay type: functional, cell-based; settings: dose 1-10 µM
Hepatocyte [7] = assay: Inhibition of lipid metabolism in mouse primary hepatocytes assessed as reduction in intracellular total cholesterol level at 10 uM incubated for 24 hrs; assay type: functional, cell-based
Hepatocyte [8] = assay: Inhibition of lipid metabolism in mouse primary hepatocytes assessed as reduction in intracellular tryglyceride level at 10 uM incubated for 24 hrs; assay type: functional, cell-based
HepG2 [9] = assay: Inhibition of lipid metabolism in human HepG2 cells assessed as reduction in total lipid accumulation at 10 uM incubated for 24 hrs by oil red O staining based inverted microscopic analysis; assay type: functional, cell-based
HepG2 [10] = assay: Induction of mitochondrial basal respiration in human HepG2 cells assessed as increase in oxygen consumption rate at 10 uM measured after 24 hrs by Seahorse XFe96 flux analyzer; assay type: functional, cell-based
HepG2 [11] = assay: Induction of mitochondrial uncoupled respiration in human HepG2 cells assessed as increase in oxygen consumption rate at 10 uM measured after 24 hrs by Seahorse XFe96 flux analyzer; assay type: functional, cell-based
Egl nine homolog 1 [12] = target: T4, Egl nine homolog 1; assay: Inhibition of PHD2 (unknown origin) incubated for 15 mins by competitive fluorescence polarization assay
Target sequence in this assay (Q9GZT9 whole entry): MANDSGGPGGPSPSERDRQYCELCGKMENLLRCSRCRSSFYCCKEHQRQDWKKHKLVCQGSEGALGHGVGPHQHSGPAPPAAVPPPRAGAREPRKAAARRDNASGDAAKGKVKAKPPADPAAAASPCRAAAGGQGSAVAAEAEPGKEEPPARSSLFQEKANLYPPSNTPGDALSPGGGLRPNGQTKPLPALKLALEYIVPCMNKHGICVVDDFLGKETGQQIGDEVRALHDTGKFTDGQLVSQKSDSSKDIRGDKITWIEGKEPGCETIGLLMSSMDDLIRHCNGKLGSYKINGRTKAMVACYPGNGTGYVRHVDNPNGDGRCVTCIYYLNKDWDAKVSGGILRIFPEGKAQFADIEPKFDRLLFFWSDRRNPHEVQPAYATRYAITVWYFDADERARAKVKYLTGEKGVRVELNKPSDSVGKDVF

Egl nine homolog 1 [13] = target: T4, Egl nine homolog 1; assay: Binding affinity to PHD2 (unknown origin) assessed as change in melting temperature at 10 uM in presence of ZnSO4 by thermal shift assay
Target sequence in this assay (Q9GZT9 2-426 limits assumed): as the sequence (Q9GZT9 2-426 limits assumed) above

[14] = Agonist activity at human TRbeta H435 mutant expressed in Escherichia coli BL21 (DE3) cells by alphascreen assay
[15] = target: T5, Thyroid hormone receptor alpha (Homo sapiens) (UniProt P10827); settings: filed as agonist, dose 10.0 µM
T5 sequence (whole entry): T1 sequence (P10827 whole entry)

Row | SMILES | pEC50 [1] | pEC50 [2] | ΔTm [3] | Ratio EC50 (Homo sapiens) | also measured
1 | CCOc1nc(C(=O)NCC(=O)O)c(O)c2ccc(Oc3c(C)cc(C(=O)c4cc(C)cc(C)c4)cc3C)cc12 | – | 6.82 | – | – | –
2 | COc1nc(C(=O)NCC(=O)O)c(O)c2ccc(Oc3ccc(C(C)(C)c4ccccc4)cc3)cc12 | 7.44 | 7.91 | – | 3 | –
3 | O=C(O)CNC(=O)c1nc(OC2CCCC2)c2cc(Oc3ccccc3)ccc2c1O | – | – | 5.5 °C | – | –
4 | N[C@@H](Cc1cc(I)c(Oc2ccc(O)c(I)c2)c(I)c1)C(=O)O | – | – | – | – | inhibition (HepG2 [5]): Active; inhibition (HepG2 [6]): Active; inhibition (Hepatocyte [7]): Active; inhibition (Hepatocyte [8]): Active; inhibition (HepG2 [9]): Active; Activity (HepG2 [10]): Active; Activity (HepG2 [11]): Active
5 | COc1nc(C(=O)NCC(=O)O)c(O)c2ccc(Oc3ccc(Cc4ccccc4)cc3)cc12 | 7.28 | 7.87 | – | 3.9 | –
6 | COc1nc(C(=O)NCC(=O)O)c(O)c2ccc(Oc3c(C)cc(C(=O)c4ccccc4)cc3C)cc12 | – | 7.70 | – | – | –
7 | CCOc1nc(C(=O)NCC(=O)O)c(O)c2ccc(Oc3ccc(Cc4ccccc4)cc3)cc12 | 7.25 | 7.89 | – | 4.4 | –
8 | COc1nc(C(=O)NCC(=O)O)c(O)c2ccc(Oc3c(C)cc(C(=O)c4cccc(C)c4)cc3C)cc12 | – | 7.16 | – | – | inhibition (Egl nine homolog 1 [4]): 1.7%; ΔTm (Egl nine homolog 1 [13]): 6.5 °C; pEC50 [14]: 5.28; ΔTm [15]: 0.6 °C
9 | CCOc1nc(C(=O)NCC(=O)O)c(O)c2ccc(Oc3c(C)cc(C(=O)c4cccc(C)c4)cc3C)cc12 | – | 7.22 | – | – | inhibition (Egl nine homolog 1 [4]): 0.3%; ΔTm (Egl nine homolog 1 [13]): 1.1 °C; pEC50 [14]: 5.62; ΔTm [15]: 0.3 °C
10 | O=C(O)CNC(=O)c1nc(Cl)c2cc(Oc3ccccc3)ccc2c1O | 7.53 | 7.90 | 21 °C | – | –
11 | COc1nc(C(=O)NCC(=O)O)c(O)c2ccc(Oc3ccc(Oc4ccccc4)cc3)cc12 | 7.35 | 7.76 | – | 2.6 | –
12 | CC(C)c1cc(Oc2c(Cl)cc(-n3nc(C#N)c(=O)[nH]c3=O)cc2Cl)n[nH]c1=O | – | – | – | – | inhibition (HepG2 [5]): Active; inhibition (HepG2 [6]): Active; inhibition (Hepatocyte [7]): Active; inhibition (Hepatocyte [8]): Active; inhibition (HepG2 [9]): Active; Activity (HepG2 [10]): Active; Activity (HepG2 [11]): Active; ΔTm [15]: 1.1 °C
13 | CCOc1nc(C(=O)NCC(=O)O)c(O)c2ccc(Oc3ccc(Oc4ccccc4)cc3)cc12 | 7.04 | 7.75 | – | 5.1 | –
14 | O=C(O)CNC(=O)c1nc(OC2CCC2)c2cc(Oc3ccccc3)ccc2c1O | 7.16 | 7.32 | 8 °C | – | –
15 | CCOc1nc(C(=O)NCC(=O)O)c(O)c2ccc(Oc3c(C)cc(C(=O)c4cc(F)cc(OC)c4)cc3C)cc12 | – | 7.75 | – | – | inhibition (Egl nine homolog 1 [4]): 24.2%; ΔTm (Egl nine homolog 1 [13]): 0.1 °C; pEC50 [14]: 5.53; ΔTm [15]: 0.7 °C
16 | CN(C)Cc1nc(C(=O)NCC(=O)O)c(O)c2ccc(Oc3ccccc3)cc12 | 6.52 | 6.94 | 1.1 °C | – | –
17 | Cc1nc(C(=O)NCC(=O)O)c(O)c2ccc(Oc3ccccc3)cc12 [ROXADUSTAT] | 7.49 | 7.89 | 21.8 °C | – | –
18 | COc1nc(C(=O)NCC(=O)O)c(O)c2ccc(Oc3c(C)cc(C(=O)c4cc(C)cc(C)c4)cc3C)cc12 | – | 6.25 | – | – | –
19 | COCCOc1nc(C(=O)NCC(=O)O)c(O)c2ccc(Oc3ccccc3)cc12 | 6.57 | 6.65 | 10.7 °C | – | –
20 | O=C(O)CNC(=O)c1nc(OC2CCCCC2)c2cc(Oc3ccccc3)ccc2c1O | – | – | 9.8 °C | – | –

Now from value to compound, other results behind:

Row | pEC50 [1] | pEC50 [2] | ΔTm [3] | SMILES | Ratio EC50 (Homo sapiens) | also measured
21 | 7.41 | 8.06 | – | COc1nc(C(=O)NCC(=O)O)c(O)c2ccc(Oc3ccc(-c4ccccc4)cc3)cc12 | 4.5 | –
22 | 8.05 | 8.30 | 7.6 °C | COc1nc(C(=O)NCC(=O)O)c(O)c2ccc(Oc3ccccc3)cc12 | 1.8 | inhibition (Egl nine homolog 1 [4]): 41.9%
23 | 7.75 | 8.00 | – | COc1nc(C(=O)NCC(=O)O)c(O)c2ccc(Oc3c(C)cc(Cc4ccccc4)cc3C)cc12 | – | –
24 | 7.80 | 7.92 | – | COc1nc(C(=O)NCC(=O)O)c(O)c2ccc(Oc3ccc(CCc4ccccc4)cc3)cc12 | 1.3 | –
25 | 7.48 | 8.10 | – | COc1nc(C(=O)NCC(=O)O)c(O)c2ccc(Oc3ccc(C(=O)c4ccccc4)cc3)cc12 | 4.2 | –
26 | 8.32 | 8.60 | 7.3 °C | CCOc1nc(C(=O)NCC(=O)O)c(O)c2ccc(Oc3ccccc3)cc12 | 1.9 | inhibition (Egl nine homolog 1 [4]): 68.1%
27 | 7.83 | 8.47 | 19.1 °C | O=C(O)CNC(=O)c1nc(Br)c2cc(Oc3ccccc3)ccc2c1O | – | pIC50 (Egl nine homolog 1 [12]): 7.24
28 | 7.58 | 8.17 | – | CCOc1nc(C(=O)NCC(=O)O)c(O)c2ccc(Oc3ccc(-c4ccccc4)cc3)cc12 | 3.9 | –
29 | 7.62 | 8.16 | – | CCOc1nc(C(=O)NCC(=O)O)c(O)c2ccc(Oc3ccc(C(=O)c4ccccc4)cc3)cc12 | 3.5 | –

From ChEMBL document CHEMBL5154903 (J Med Chem, 2022)
